Source: patent US10010614B2, “Derivatives of GLP-1 like peptides, and uses thereof” (Novo Nordisk A/S, priority 2013, dated 2018)
Numbered stars: 1 amine (or outer) side, 2 acyl side, 3 side chain; on linkers, the order of the positions; unused ones are H or OH. Square brackets hold non-standard residues; d marks the D form. Side chains are listed from the residue outwards. Peptide text beside a SMILES is read from it. * marks the point of attachment. X1 = O=C(O)CCCCCCCCCCCCCCCCCCC(=O)NCC1CCC(C(=O)*)CC1; C20 diacid = O=C(O)CCCCCCCCCCCCCCCCCCC(=O)*; γGlu = O=C(O)[C@H](CCC(=O)[*:2])N[*:1]; εLys = N[C@@H](CCCCN[*:1])C(=O)[*:2]; Trx = NC[C@H]1CC[C@H](C(=O)O)CC1; AEEA = NCCOCCOCC(=O)O; Aib = CC(C)(N)C(=O)O

Assay: Pharmacokinetic study in minipigs (i.v.)
Type: in vivo
Settings: male, Göttingen, minipig, plasma, iv; read-out: Terminal half-live (converted)
Protocol: The purpose of this study is to determine the protraction in vivo of the GLP-1 derivatives after i.v. administration to minipigs, i.e. the prolongation of their time in the body and thereby their time of action. This is done in a pharmacokinetic (PK) study, where the terminal half-life of the derivative in question is determined. By terminal half-life is meant the time it takes to halve a certain plasma concentration in the terminal elimination phase.
The derivatives of Examples 1-5 were dosed with 2 nmol/kg, the derivative of Example 6 was dosed with 5 nmol/kg, and the derivatives of Examples 7-9 were dosed with 15 nmol/kg.
Male Göttingen minipigs were obtained from Ellegaard Göttingen Minipigs (Dalmose, Denmark) approximately 7-14 months of age and weighing approximately 16-35 kg were used in the studies. The minipigs were housed either individually (pigs with permanent catheters) or in a group and fed restrictedly once or twice daily with SDS minipig diet (Special Diets Services, Essex, UK).
After at least 2 weeks of acclimatisation two permanent central venous catheters were implanted in vena cava caudalis or cranialis in each animal. The animals were allowed 1 week recovery after the surgery, and were then used for repeated pharmacokinetic studies with a suitable wash-out period between successive GLP-1 derivative dosings.
The GLP-1 derivatives were dissolved in 50 mM sodium phosphate, 70-145 mM sodium chloride, 0.05% tween 80, pH 7.4 to a concentration of usually from 20-60 nmol/ml.
Intravenous injections (the volume corresponding to for example 0.050-0.125 ml/kg) of the compounds were given through one catheter or through the venflon, and blood was sampled at predefined time points for up till 25 days post dosing (preferably through the other catheter or by venipuncture). Blood samples (for example 0.8 ml) were collected in EDTA buffer (8 mM) and then centrifuged at 4° C. and 1942G for 10 minutes.
Plasma was pipetted into Micronic tubes on dry ice, and kept at −20° C. until analysed for plasma concentration of the respective GLP-1 compound using LOCI. Individual plasma concentration-time profiles were analyzed by a non-compartmental pharmacokinetic method in Phoenix v. 6.2 (Pharsight Inc., Mountain View, Calif., USA), or other relevant software for PK analysis, and the resulting terminal half-lives (harmonic mean) determined.

SMILES	half-life [h]
CC[C@H](C)[C@H](NC(=O)[C@H](Cc1ccccc1)NC(=O)[C@H](CCC(=O)O)NC(=O)[C@H](CCCNC(=N)N)NC(=O)[C@H](C)NC(=O)[C@H](C)NC(=O)[C@H](CCC(N)=O)NC(=O)[C@H](CCC(=O)O)NC(=O)[C@H](CCC(=O)O)NC(=O)[C@H](CC(C)C)NC(=O)[C@H](Cc1ccc(O)cc1)NC(=O)[C@H](CO)NC(=O)[C@H](CO)NC(=O)[C@@H](NC(=O)[C@H](CC(=O)O)NC(=O)[C@H](CO)NC(=O)[C@@H](NC(=O)[C@H](Cc1ccccc1)NC(=O)[C@@H](NC(=O)CNC(=O)[C@H](CCC(=O)O)NC(=O)C(C)(C)NC(=O)[C@@H](N)Cc1c[nH]cn1)[C@@H](C)O)[C@@H](C)O)C(C)C)C(=O)N[C@@H](C)C(=O)N[C@@H](Cc1c[nH]c2ccccc12)C(=O)N[C@@H](CC(C)C)C(=O)N[C@H](C(=O)N[C@@H](CCCNC(=N)N)C(=O)NCC(=O)N[C@@H](CCCNC(=N)N)C(=O)NCC(=O)N[C@@H](CCCCNC(=O)[C@@H](N)CCCCNC(=O)[C@@H](N)CCCCNC(=O)CC[C@H](NC(=O)[C@H]1CC[C@H](CNC(=O)CCCCCCCCCCCCCCCCCCC(=O)O)CC1)C(=O)O)C(=O)NCC(=O)NCC(=O)N[C@@H](CO)C(=O)N[C@@H](CCCCNC(=O)[C@@H](N)CCCCNC(=O)[C@@H](N)CCCCNC(=O)CC[C@H](NC(=O)[C@H]1CC[C@H](CNC(=O)CCCCCCCCCCCCCCCCCCC(=O)O)CC1)C(=O)O)C(=O)O)C(C)C [Example 7] (H-H[Aib]EGTFTSDVSSYLEEQAAREFIAWLVRGRGK([εLys-εLys-γGlu-Trx-C20 diacid])GGSK([εLys-εLys-γGlu-Trx-C20 diacid])-OH)	106
CC[C@H](C)[C@H](NC(=O)[C@H](Cc1ccccc1)NC(=O)[C@H](CCC(=O)O)NC(=O)[C@H](CCCNC(=N)N)NC(=O)[C@H](C)NC(=O)[C@H](C)NC(=O)[C@H](CCC(N)=O)NC(=O)[C@H](CCC(=O)O)NC(=O)[C@H](CCC(=O)O)NC(=O)[C@H](CC(C)C)NC(=O)[C@H](Cc1ccc(O)cc1)NC(=O)[C@H](CO)NC(=O)[C@H](CO)NC(=O)[C@@H](NC(=O)[C@H](CC(=O)O)NC(=O)[C@H](CO)NC(=O)[C@@H](NC(=O)[C@H](Cc1ccccc1)NC(=O)[C@@H](NC(=O)CNC(=O)[C@H](CCC(=O)O)NC(=O)C(C)(C)NC(=O)[C@@H](N)Cc1c[nH]cn1)[C@@H](C)O)[C@@H](C)O)C(C)C)C(=O)N[C@@H](C)C(=O)N[C@@H](Cc1c[nH]c2ccccc12)C(=O)N[C@@H](CC(C)C)C(=O)N[C@H](C(=O)N[C@@H](CCCNC(=N)N)C(=O)NCC(=O)N[C@@H](CCCCNC(=O)COCCOCCNC(=O)COCCOCCNC(=O)CC[C@H](NC(=O)C1CCC(CNC(=O)CCCCCCCCCCCCCCCCCCC(=O)O)CC1)C(=O)O)C(=O)NCC(=O)NCC(=O)NCC(=O)NCC(=O)N[C@@H](CO)C(=O)N[C@@H](CCCCNC(=O)COCCOCCNC(=O)COCCOCCNC(=O)CC[C@H](NC(=O)C1CCC(CNC(=O)CCCCCCCCCCCCCCCCCCC(=O)O)CC1)C(=O)O)C(=O)O)C(C)C (some centres unmarked) [Example 5] (H-H[Aib]EGTFTSDVSSYLEEQAAREFIAWLVRGK([AEEA-AEEA-γGlu-X1])GGGGSK([AEEA-AEEA-γGlu-X1])-OH; N-terminus and C-terminus assumed)	131
